Data from paper PMC11952222, “Development and comparison of single FLT3-inhibitors to dual FLT3/TAF1-inhibitors as an anti-leukemic approach” (PLOS One, 2025).
Where “and” joins values, the source holds several entries; their conditions need not be identical. Identical values can stand only once. Like-named read-outs stand apart in the source and are kept apart here.

Legend:
[1] = molecular target: T1, TAF1(2) (Homo sapiens, UniProt P21675); assay: Eurofins/DiscoverX cell free bromodomain assay, percent control; assay type: binding; conditions: for per_control_1000nM TAF1(2): 1000 nM compound; for per_control_10000nM TAF1(2): 10000 nM compound
T1 construct: with specific focus on TAF1(2) bromodomain assessed by the KdELECT assay; purchased Eurofins/DiscoverX
T1 sequence (P21675 1519-1628 limits assumed): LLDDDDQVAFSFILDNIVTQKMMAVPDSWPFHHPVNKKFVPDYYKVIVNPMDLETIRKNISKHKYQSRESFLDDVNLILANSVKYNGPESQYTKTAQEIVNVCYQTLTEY
Experimental: (§1) The 3i-compounds underwent activity testing against a panel of 32 bromodomains using the Eurofins/DiscoverX bromoMAX assay, with specific focus on TAF1(2) bromodomain assessed by the KdELECT assay. In a similar manner, kinase activity was evaluated using a panel of 97 kinase proteins using the Eurofins/DiscoverX scanELECT and KdELECT assays, with specific focus on FLT3 protein. An 11-point 3-fold serial dilution of each test compound was prepared in 100% DMSO at 100x final test concentration and subsequently diluted to final concentration (DMSO 1%). […] Percent control was calculated using the following formula: ((test compound signal – positive control signal)/ (negative control signal – positive control signal)) × 100.

[2] = system: DU4475 cells; assay: Cell viability, CellTiter Glo, DU4475; assay type: cell-based; conditions: for IC50: 72h
Experimental: (§2) Drug sensitivity and resistance testing in MOLM13, DU4475, HDQP1, and IGROV1 cells was conducted at the Finnish Institute for Molecular Medicine (FIMM), University of Helsinki. In brief, the effects of compounds on cell viability and cell death were quantified with Cell-Titer Glo (Promega) and CellTox Green (Promega), respectively. Compounds or vehicle control were included in cell culture medium at described concentrations for 72h using an automated liquid dispenser in 384-well format. For KASUMI-1 experiments, cells were grown in 96-well plates and similarly incubated with compounds at indicated concentrations for 72h in RPMI + 10% FCS + Gentamicin, followed by lysis and quantification of cell viability with Cell-Titer Glo (Promega).
(§3) Raw values from viability and toxicity assays were normalized to DMSO and plotted to heat maps in R using pheatmap (RRID:SCR_016418). Dose-response curves were generated using the drc package in R [40]. In brief, nonlinear modelling was performed to calculate IC50 values for each compound where possible and resulting curves from drc and experimental values were plotted using ggplot2 (RRID:SCR_014601).

[3] = system: FLT3(ITD); assay: Eurofins/DiscoverX cell free kinase assay, percent control; assay type: binding; conditions: for per_control_1000nM FLT3(ITD): 1000 nM compound; for per_control_10000nM FLT3(ITD): 10000 nM compound
Experimental: as §1
(§4) Fig 2 Results of 3i-compound series at concentrations of 1 µM and 10 µM in a cell free Eurofins/DiscoverX assay for kinase and bromodomain proteins. (A) Single-targeted compounds with tyrosine kinase activity but without bromodomain activity. (B) Dual-targeted compounds with both tyrosine kinase and bromodomain activity.

[4] = molecular target: T2, PDGFRB (Homo sapiens, UniProt P09619); assay: as above; assay type: binding; conditions: for per_control_1000nM PDGFRB: 1000 nM compound; for per_control_10000nM PDGFRB: 10000 nM compound
T2 construct: purchased Eurofins/DiscoverX
Experimental: as §1, §4

[5] = molecular target: T3, FLT3 (Homo sapiens, UniProt P36888); assay: as above; assay type: binding; conditions: for per_control_1000nM FLT3: 1000 nM compound; for per_control_10000nM FLT3: 10000 nM compound
T3 construct: purchased Eurofins/DiscoverX
T3 sequence (P36888 27-993): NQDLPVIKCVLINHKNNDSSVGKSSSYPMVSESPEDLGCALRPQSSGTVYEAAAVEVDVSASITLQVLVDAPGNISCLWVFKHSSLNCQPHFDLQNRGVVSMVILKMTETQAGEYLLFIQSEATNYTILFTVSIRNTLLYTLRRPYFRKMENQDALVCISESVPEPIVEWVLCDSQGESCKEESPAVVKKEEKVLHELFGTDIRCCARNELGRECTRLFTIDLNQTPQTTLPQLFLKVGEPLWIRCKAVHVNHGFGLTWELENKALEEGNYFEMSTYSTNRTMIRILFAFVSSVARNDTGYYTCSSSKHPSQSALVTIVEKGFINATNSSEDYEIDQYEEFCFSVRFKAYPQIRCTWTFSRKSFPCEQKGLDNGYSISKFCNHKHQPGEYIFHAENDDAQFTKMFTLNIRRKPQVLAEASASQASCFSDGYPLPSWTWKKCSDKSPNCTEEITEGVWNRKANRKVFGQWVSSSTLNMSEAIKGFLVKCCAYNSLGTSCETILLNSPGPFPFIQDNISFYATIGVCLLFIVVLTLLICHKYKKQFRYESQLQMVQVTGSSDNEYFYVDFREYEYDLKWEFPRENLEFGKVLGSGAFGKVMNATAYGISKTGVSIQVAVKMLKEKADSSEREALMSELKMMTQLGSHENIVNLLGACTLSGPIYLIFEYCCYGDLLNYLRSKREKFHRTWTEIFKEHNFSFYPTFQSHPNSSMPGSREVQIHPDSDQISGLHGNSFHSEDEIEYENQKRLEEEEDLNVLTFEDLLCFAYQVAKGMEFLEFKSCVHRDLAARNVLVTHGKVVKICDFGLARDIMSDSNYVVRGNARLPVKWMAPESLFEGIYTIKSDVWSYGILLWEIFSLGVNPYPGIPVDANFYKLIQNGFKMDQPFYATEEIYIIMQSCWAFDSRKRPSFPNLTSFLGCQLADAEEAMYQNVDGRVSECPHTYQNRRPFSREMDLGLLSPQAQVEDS
Experimental: as §1, §4

[6] = system: FLT3(ITD,F691L); assay: as above; assay type: binding; conditions: for per_control_1000nM FLT3(ITD,F691L): 1000 nM compound; for per_control_10000nM FLT3(ITD,F691L): 10000 nM compound
Experimental: as §1, §4

[7] = system: FLT3(ITD,D835V); assay: as above; assay type: binding; conditions: for per_control_1000nM FLT3(ITD,D835V): 1000 nM compound; for per_control_10000nM FLT3(ITD,D835V): 10000 nM compound
Experimental: as §1, §4

[8] = system: IGROV1 cells; assay: Cell viability, CellTiter Glo, IGROV1; assay type: cell-based
Experimental: as §2, §3

[9] = system: MOLM13 cells; assay: Cell viability, CellTiter Glo, MOLM13; assay type: cell-based; conditions: for IC50: 72h
Experimental: as §2, §3

[10] = system: HDQP1 cells; assay: Cell viability, CellTiter Glo, HDQP1; assay type: cell-based
Experimental: as §2, §3

[11] = molecular target: T4, TAF1(2) bromodomain (Homo sapiens, UniProt P21675); assay: Eurofins/DiscoverX KdELECT, TAF1(2) bromodomain IC50; assay type: binding; conditions: 11-point 3-fold dilution, top concentration 10,000 nM
T4 construct: with specific focus on TAF1(2) bromodomain assessed by the KdELECT assay; purchased Eurofins/DiscoverX
T4 sequence (P21675 1519-1628 limits assumed): T1 sequence (P21675 1519-1628 limits assumed)
Experimental: as §1

[12] = molecular target: T3, FLT3; assay: Eurofins/DiscoverX KdELECT, FLT3 kinase IC50; assay type: binding; conditions: 11-point 3-fold dilution, top concentration 10,000 nM
Experimental: as §1

[13] = one independent experiment per value, read-out: DU4475 IC50, individual dose-response curve (CellTiter Glo)
[14] = 72h, one independent experiment per value, read-out: IGROV1 IC50, individual dose-response curve (CellTiter Glo)
[15] = one independent experiment per value, read-out: MOLM13 IC50, individual dose-response curve (CellTiter Glo)
[16] = 72h, one independent experiment per value, read-out: HDQP1 IC50, individual dose-response curve (CellTiter Glo)

T2 sequence (P09619 33-1106): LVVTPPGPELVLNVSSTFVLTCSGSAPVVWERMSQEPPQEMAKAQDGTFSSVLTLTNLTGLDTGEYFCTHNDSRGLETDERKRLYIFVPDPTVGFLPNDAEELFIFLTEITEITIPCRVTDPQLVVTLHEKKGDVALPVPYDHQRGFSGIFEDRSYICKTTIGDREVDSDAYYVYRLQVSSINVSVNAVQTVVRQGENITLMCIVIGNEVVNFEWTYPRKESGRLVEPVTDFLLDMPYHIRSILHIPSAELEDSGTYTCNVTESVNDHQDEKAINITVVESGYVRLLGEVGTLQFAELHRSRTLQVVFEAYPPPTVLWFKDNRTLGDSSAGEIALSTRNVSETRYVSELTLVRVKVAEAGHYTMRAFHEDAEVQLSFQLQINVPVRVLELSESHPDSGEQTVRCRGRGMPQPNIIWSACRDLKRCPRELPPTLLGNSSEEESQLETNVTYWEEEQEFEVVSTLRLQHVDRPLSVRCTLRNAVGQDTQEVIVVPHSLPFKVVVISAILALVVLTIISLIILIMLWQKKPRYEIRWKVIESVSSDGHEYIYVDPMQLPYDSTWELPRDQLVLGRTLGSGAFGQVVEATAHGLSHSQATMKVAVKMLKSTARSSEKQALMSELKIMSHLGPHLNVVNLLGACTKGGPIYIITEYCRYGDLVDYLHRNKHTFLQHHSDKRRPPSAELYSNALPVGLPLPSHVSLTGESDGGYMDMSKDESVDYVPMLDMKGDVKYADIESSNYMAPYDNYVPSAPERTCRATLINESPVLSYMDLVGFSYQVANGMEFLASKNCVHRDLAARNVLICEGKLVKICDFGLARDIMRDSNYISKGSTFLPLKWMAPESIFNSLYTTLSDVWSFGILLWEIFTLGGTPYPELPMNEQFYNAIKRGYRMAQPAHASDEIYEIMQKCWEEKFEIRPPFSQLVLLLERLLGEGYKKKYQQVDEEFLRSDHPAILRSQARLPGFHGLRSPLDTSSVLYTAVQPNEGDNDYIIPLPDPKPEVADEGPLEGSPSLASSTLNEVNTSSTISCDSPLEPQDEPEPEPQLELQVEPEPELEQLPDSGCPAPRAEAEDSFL

Structure (SMILES) | per_control_1000nM TAF1(2) [1] [percent control] | per_control_10000nM TAF1(2) [1] [percent control] | IC50 [2, 13] | per_control_1000nM FLT3(ITD) [3] [percent control] | per_control_10000nM FLT3(ITD) [3] [percent control] | per_control_1000nM PDGFRB [4] [percent control] | per_control_10000nM PDGFRB [4] [percent control] | per_control_1000nM FLT3 [5] [percent control] | per_control_10000nM FLT3 [5] [percent control] | per_control_1000nM FLT3(ITD,F691L) [6] [percent control] | per_control_10000nM FLT3(ITD,F691L) [6] [percent control] | per_control_1000nM FLT3(ITD,D835V) [7] [percent control] | per_control_10000nM FLT3(ITD,D835V) [7] [percent control] | IC50 [8, 14] | IC50 [9, 15] | IC50 [10, 16] | IC50 [12] [µM] | also measured
CC(C)(C)c1ccc(C(=O)Nc2cc(-c3ccccc3)n[nH]2)cc1 [Compound 3i-1247, 4-(tert-butyl)-N-(3-phenyl-1H-pyrazol-5-yl)benzamide] | 97 | 78 | 2.5 µM and 2.9 µM and 2.7 µM | 3.2 | 12 | 0 | 0 | 12 | 0 | 9.7 | 0.1 | 11 | 0.3 | 3.5 µM and 3.8 µM and 2.5 µM | 0.0387 µM and 0.137 µM and 0.0424 µM | > 30 µM | 0.0015 | activity in DU4475 cells ([2]; compared to dual FLT3/TAF1(2) inhibitors 3i-1103, 3i-1246, 3i-1248): superior activity; IC50 ([8]; 72h, mean of n = 3 independent experiments, read-out: IGROV1 IC50 (CellTiter Glo)): 3.3 µM; IC50 ([9]; mean of n = 3 independent experiments, read-out: MOLM13 IC50 (CellTiter Glo)): 0.0726 µM; anti-proliferative activity in MOLM13 cells ([9]; comparison within the compound set): most potent compound overall; IC50 ([11]; TAF1(2) IC50, kdELECT): > 10 µM
Cn1cc(-c2cc(NC(=O)c3ccc(C(C)(C)C)cc3)n[nH]2)ccc1=O [Compound 3i-1248, 4-(tert-butyl)-N-(5-(1-methyl-6-oxo-1,6-dihydropyridin-3-yl)-1H-pyrazol-3-yl)benzamide] | 0.3 | 0.05 | 9.8 µM and 9.5 µM | 0 | 12 | 11 | 0.35 | 6.7 | 0.15 | 29 | 1.9 | 5.3 | 0.15 | 10.5 µM and 7.7 µM | 0.539 µM and 1.58 µM and 0.702 µM | 21.1 µM and 22.1 µM | < 1 | IC50 ([2]; Homo sapiens, DU-4475, 72 h, mean of n = 3 independent experiments, read-out: DU4475 IC50 (CellTiter Glo)): 9.4 µM; IC50 ([2]; Homo sapiens, DU-4475, 72 h, one independent experiment per value, read-out: DU4475 IC50, individual dose-response curve (CellTiter Glo)): 8.8 µM; IC50 ([8]; Homo sapiens, IGROV-1, 72 h, mean of n = 3 independent experiments, read-out: IGROV1 IC50 (CellTiter Glo)): 10 µM; IC50 ([8]; Homo sapiens, IGROV-1, 72 h, one independent experiment per value, read-out: IGROV1 IC50, individual dose-response curve (CellTiter Glo)): 11.8 µM; IC50 ([9]; Homo sapiens, MOLM-13, 72 h, mean of n = 3 independent experiments, read-out: MOLM13 IC50 (CellTiter Glo)): 0.94 µM; IC50 ([10]; 72h, mean of n = 3 independent experiments, listed as 1248, read-out: HDQP1 IC50 (CellTiter Glo)): 20.7 µM; IC50 ([10]; 72h, mean of n = 3 independent experiments, read-out: HDQP1 IC50 (CellTiter Glo)): > 10 µM; IC50 ([10]; Homo sapiens, HDQ-P1, 72 h, one independent experiment per value, read-out: HDQP1 IC50, individual dose-response curve (CellTiter Glo)): 18.8 µM; IC50 ([11]; kdELECT, read-out: TAF1(2) IC50): 0.0051 µM
